From patent US11761045B2, “Splice variants associated with neomorphic SF3B1 mutants” (Eisai R&D Management Co., Ltd., priority 2015, dated 2023)

Target: SF3B1^WT (Homo sapiens, UniProt O75533+Q7RTV0)
Test: Competitive binding assay (SPA, 3H-probe molecule) with Flag-tag SF3B1 from 293F cells
Design: expressed in transfected cells; host or cells: 293F cells (Life Technologies), transient transfection with pFLAG-CMV-2-SF3B1
Details: one nM 3H-probe; Flag-tag SF3B1^WT from transfected 293F cells; read-out: IC50, competitive inhibition of binding of the 3H-probe molecule
Method: The ability of E7107 to bind both SF3B1^WT and SF3B1^K700E proteins was evaluated in a competitive binding assay using Flag-tag SF3B1 proteins immunoprecipitated with anti-Flag antibody from transiently transfected 293F cells. Batch immobilization of antibody to beads was prepared by incubating 80 μg of anti-SF3B1 antibody (MBL International) and 24 mg anti-mouse PVT SPA scintillation beads (PerkinElmer) for 30 minutes. After centrifugation, the antibody-bead mixture was resuspended in PBS supplemented with PhosSTOP phosphatase inhibitor cocktail (Roche) and complete ULTRA protease inhibitor cocktail (Roche). Nuclear extracts were prepared by diluting 40 mg into a total volume of 16 mL PBS with phosphatase and protease inhibitors, and the mixture was centrifuged. The supernatant was transferred into a clean tube, and the antibody-bead mixture was added and incubated for two hours. The beads were collected by centrifuging, washed twice with PBS+0.1% Triton X-100, and resuspended with 4.8 mL of PBS. 100 μL binding reactions were prepared using slurry and varying concentrations of E7107. […] The mixture was incubated at room temperature for 15 minutes, and luminescence signals were read using a MicroBeta2 Plate Counter (PerkinElmer).

Sequence of SF3B1^WT (Q15393 whole entry): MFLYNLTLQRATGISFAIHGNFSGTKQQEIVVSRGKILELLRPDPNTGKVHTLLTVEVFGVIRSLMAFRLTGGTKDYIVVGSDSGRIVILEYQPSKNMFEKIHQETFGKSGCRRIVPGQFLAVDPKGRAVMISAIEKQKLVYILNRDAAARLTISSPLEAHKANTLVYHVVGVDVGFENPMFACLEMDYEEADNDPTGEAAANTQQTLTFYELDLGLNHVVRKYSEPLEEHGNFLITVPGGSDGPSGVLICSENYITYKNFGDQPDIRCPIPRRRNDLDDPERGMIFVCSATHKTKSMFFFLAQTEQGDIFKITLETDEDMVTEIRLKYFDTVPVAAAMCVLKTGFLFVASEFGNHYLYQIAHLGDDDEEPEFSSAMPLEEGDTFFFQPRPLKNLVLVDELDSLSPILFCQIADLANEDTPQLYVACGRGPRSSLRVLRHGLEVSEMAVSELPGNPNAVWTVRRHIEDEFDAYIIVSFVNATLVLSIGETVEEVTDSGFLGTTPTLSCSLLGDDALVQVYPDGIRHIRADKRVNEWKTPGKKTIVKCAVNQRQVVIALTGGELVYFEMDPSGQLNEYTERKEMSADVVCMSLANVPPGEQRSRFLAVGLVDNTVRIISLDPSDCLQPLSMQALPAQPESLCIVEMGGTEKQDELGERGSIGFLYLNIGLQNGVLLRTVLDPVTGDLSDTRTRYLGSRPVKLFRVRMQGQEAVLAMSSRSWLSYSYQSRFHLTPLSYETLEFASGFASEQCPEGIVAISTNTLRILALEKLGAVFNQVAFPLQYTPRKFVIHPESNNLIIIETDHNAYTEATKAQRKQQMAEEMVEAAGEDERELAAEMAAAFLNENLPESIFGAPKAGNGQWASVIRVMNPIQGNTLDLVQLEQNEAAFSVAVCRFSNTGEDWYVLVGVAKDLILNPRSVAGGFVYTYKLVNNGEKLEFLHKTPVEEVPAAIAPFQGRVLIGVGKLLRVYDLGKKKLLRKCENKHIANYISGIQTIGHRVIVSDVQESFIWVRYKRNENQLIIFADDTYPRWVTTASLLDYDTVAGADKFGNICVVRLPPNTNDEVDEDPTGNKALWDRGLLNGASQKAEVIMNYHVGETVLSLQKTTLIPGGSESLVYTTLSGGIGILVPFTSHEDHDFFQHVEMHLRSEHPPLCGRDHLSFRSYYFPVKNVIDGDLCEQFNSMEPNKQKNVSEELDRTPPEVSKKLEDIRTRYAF
Sequence of SF3B1^WT (Q9BWJ5 whole entry, further chain): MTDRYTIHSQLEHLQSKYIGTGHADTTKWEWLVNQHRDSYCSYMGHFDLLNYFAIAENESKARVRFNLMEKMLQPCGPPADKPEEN
Sequence of SF3B1^WT (Q7RTV0 whole entry): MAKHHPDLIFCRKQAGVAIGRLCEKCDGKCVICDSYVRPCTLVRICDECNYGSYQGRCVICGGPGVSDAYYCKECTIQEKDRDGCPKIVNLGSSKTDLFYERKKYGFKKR
Sequence of SF3B1^WT (O75533 whole entry): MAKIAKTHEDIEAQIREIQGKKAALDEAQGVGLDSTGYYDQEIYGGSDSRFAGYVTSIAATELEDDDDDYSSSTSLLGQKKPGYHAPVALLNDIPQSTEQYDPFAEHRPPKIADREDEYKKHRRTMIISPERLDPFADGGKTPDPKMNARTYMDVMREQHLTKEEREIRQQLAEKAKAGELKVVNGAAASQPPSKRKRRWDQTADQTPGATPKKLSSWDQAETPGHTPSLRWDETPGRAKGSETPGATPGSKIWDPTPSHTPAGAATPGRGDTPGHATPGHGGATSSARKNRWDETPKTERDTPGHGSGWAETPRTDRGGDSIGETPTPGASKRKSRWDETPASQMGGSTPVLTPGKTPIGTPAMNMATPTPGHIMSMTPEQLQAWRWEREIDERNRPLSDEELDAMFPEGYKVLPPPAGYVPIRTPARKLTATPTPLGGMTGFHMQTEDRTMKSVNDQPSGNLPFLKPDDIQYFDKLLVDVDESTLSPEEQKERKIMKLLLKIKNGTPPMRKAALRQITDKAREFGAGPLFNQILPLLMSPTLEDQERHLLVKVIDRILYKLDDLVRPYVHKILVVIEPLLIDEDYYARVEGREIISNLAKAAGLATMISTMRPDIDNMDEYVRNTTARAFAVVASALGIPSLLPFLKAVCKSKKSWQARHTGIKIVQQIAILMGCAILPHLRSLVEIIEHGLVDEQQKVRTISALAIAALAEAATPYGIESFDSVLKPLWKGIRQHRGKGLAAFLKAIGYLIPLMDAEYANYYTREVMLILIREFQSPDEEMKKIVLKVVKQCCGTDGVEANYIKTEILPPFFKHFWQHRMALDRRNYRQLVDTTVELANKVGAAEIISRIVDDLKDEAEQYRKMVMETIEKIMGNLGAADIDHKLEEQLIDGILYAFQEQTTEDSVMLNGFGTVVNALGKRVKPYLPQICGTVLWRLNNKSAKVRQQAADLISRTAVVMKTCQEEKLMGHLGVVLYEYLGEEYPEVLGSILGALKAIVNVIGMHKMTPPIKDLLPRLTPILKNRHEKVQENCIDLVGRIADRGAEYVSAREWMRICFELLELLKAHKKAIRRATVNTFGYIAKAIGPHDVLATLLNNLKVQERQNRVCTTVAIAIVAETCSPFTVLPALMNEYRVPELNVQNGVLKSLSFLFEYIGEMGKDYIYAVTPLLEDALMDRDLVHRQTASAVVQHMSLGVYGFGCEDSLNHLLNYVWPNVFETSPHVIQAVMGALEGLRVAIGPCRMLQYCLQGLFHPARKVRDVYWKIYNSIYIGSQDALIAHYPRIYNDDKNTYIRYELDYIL

CC[C@H](O)[C@@H](C)[C@H]1O[C@@H]1C[C@@](C)(O)/C=C/C=C(\C)[C@H]1OC(=O)C[C@H](O)CC[C@@](C)(O)[C@@H](OC(=O)N2CCN(C3CCCCCC3)CC2)/C=C/[C@@H]1C [Compound E7107]
IC50: 13 nM
